Assay results taken from patent publication US20090004677A1, “QUANTITATIVE DETERMINATION OF BCL10” (The Board of Trustees of the University of Illinois, priority 2007, published 2009).

Key:
[1] = tested on: Bcl10; test: solid-phase sandwich ELISA for Bcl10 in NCM460 cells; format: cell-based, human
Description: NCM460 and primary colon cells were treated with different concentrations (1, 10 and 20 ng/ml) of lipopolysaccharide (LPS; from E. coli 026:B6, #L2654, Sigma-Aldrich, St. Louis, Mo.) for durations of 2, 4, 6, or 24 hours. The endotoxin level of the LPS from E. coli was reported as 500,000 EU (Endotoxin Units)/mg LPS. The secretion of IL-8 and the cellular content of Bcl10 and phospho-IκBα proteins in response to these treatments were assayed. […] A second LPS (from Salmonella enterica serotype Minnesota; #L4641, Sigma-Aldrich, St. Louis, Mo.) was also used for some of the experiments. The endotoxin level of the batch of Salmonella enterica was reported as 800,000 EU/mg LPS.
The expression of Bcl10 in NCM460 cells or primary colon cells was determined by a solid-phase sandwich ELISA designed to quantify cellular Bcl10. Control or treated cells were lysed in RIPA buffer (50 mM Tris-HCl containing 0.15 M NaCl, 1% Nonidet P40, 0.5% deoxycholic acid and 0.1% SDS, pH 7.4) and the cell extracts were stored at −80° C. until assayed. Bcl10 molecules in the samples or standards were captured in the wells of a microtiter plate pre-coated with rabbit polyclonal antibody to Bcl10 (QED Bioscience Inc., San Diego, Calif.). Immobilized Bcl10 molecules were detected by a mouse monoclonal antibody to Bcl10 (Novus Biologicals, Littleton, Colo.) and goat anti-mouse IgG-horseradish peroxidase (HRP) complex (Santa Cruz Biotechnology, Santa Cruz, Calif.). The peroxidase enzyme activity bound to Bcl10 molecules was determined by chromogenic reaction with hydrogen peroxide/tetramethylbenzidine. Color development due to enzymatic activity was stopped by 2N sulfuric acid, and intensity of the color was measured at 450 nm in ELISA Plate reader (SLT, Spectra). Bcl10 concentrations of the samples were extrapolated from a standard curve derived using known concentrations of recombinant Bcl10 (Calbiochem, EMD Bioscience, San Diego, Carlsbad, Calif.). Sample values were normalized with the total cell protein concentrations determined by BCA™ Protein assay kit (Pierce, Rockford, Ill.). […]

[2] = tested on: IL-8; test: ELISA for IL-8 in spent media of NCM460 cells; format: cell-based, human
Description: NCM460 and primary colon cells were treated with different concentrations (1, 10 and 20 ng/ml) of lipopolysaccharide (LPS; from E. coli 026:B6, #L2654, Sigma-Aldrich, St. Louis, Mo.) for durations of 2, 4, 6, or 24 hours. The endotoxin level of the LPS from E. coli was reported as 500,000 EU (Endotoxin Units)/mg LPS. The secretion of IL-8 and the cellular content of Bcl10 and phospho-IκBα proteins in response to these treatments were assayed. In the majority of experiments, LPS 10 ng/ml for 6 hours was selected as the optimal dose and duration. A second LPS (from Salmonella enterica serotype Minnesota; #L4641, Sigma-Aldrich, St. Louis, Mo.) was also used for some of the experiments. The endotoxin level of the batch of Salmonella enterica was reported as 800,000 EU/mg LPS.
The secretion of IL-8 in the spent media of control and treated NCM460 cells and primary colon cells was measured by the DuoSet Enzyme-linked Immunosorbent Assay (ELISA) kit for human IL-8 (R&D Systems Inc, Minneapolis, Minn.), according to the manufacturer's instructions. The IL-8 in the spent media was captured into the wells of a microtiter plate pre-coated with specific anti-IL-8 monoclonal antibody. Immobilized IL-8 was then detected by biotin-conjugated secondary IL-8 antibody and Streptavidin-HRP. Hydrogen peroxide/tetramethylbenzidine chromogenic substrate was used to develop the color and the intensity of color was measured at 450 nm with a reference filter of 570 nm in an ELISA plate reader (SLT, Spectra). The IL-8 concentrations were extrapolated from a standard curve plotted using known concentrations of IL-8. The sample values were normalized with total protein content (BCA™ Protein assay kit; Pierce, Rockford, Ill.) and expressed as pg or ng/mg cellular protein.

[3] = NCM460 cells, 50 μM inhibitor 2 hours prior to 6 hours LPS 10 ng/ml
[4] = human IEC, LPS 10 ng/ml for 2-6 hours

With O=C(Nc1nc2ccccc2n1CCN1CCOCC1)c1cccc([N+](=O)[O-])c1 [IRAK 1/4 inhibitor, N-(2-morpholinylethyl)-2-(3-nitrobenzoylamido)-benzimidazole] the “Bcl10 after LPS with IRAK 1/4 inhibitor” value [1, 3] was 2.36 ± 0.08 ng/mL, the “decline of the LPS-induced increase in Bcl10” value [1, 3] was 73% and the “effect on the LPS-induced increase in Bcl10 (result in words)” value [1, 4] was “eliminated”. The “IL-8 after LPS with IRAK 1/4 inhibitor” value [2, 3] was 1.14 ± 0.08 ng/mL, the “decline of the LPS-induced increase in IL-8 response” value [2, 3] was 60% and the “effect on the LPS-induced increase in IL-8 (result in words)” value [2, 4] was “eliminated”.
